This is an account of results in US20230391729A1, “SUCCINATE SALTS OF N-(3-(4-(3-(DIISOBUTYLAMINO)PROPYL)PIPERAZIN-1-YL)PROPYL)-1H-BENZO[D]IMIDAZOL-2-AMINE, PREPARATION THEREOF AND USE OF THE SAME” (ALZPROTECT, priority 2020, published 2023).

In one assay the test system is PGRN. Kind of assay: Extracellular progranulin quantification by ELISA after Aβ1-42 injury. The conditions noted are these: Aβ1-42 injury 72 h; 10 nM. Format: cell-based, rat. The method, then:
Rat cortical neurons cultured with microglia were cultured as described by Callizot et al. in J Neurosci Res. 2013, 91: 706-716 with modifications to include microglial cells. Pregnant female rats (Rats Wistar; Janvier Labs France) of 15 days of gestation were killed, after a deep anesthesia with CO2, by cervical dislocation. Then, fetuses were collected and immediately placed in ice-cold L15 Leibovitz medium with a 2% penicillin (10,000 U/ml) and streptomycin (10 mg/ml) solution (PS) and 1% bovine serum albumin (BSA). Cortexes were treated for 20 min at 37° C. with a trypsin-EDTA solution at a final concentration of 0.05% trypsin and 0.02% EDTA. […] Viable cells were counted in a Neubauer cytometer, using the trypan blue exclusion test. […]
Cortical neurons were intoxicated with A3 solutions (see below) after 11 days of culture. […] This solution was gently agitated for 3 days at 37° C. in the dark and immediately used after being properly diluted in control medium to the concentrations used ([…] of Aβ1-42 preparation containing […] of Aβ oligomers (AβO) measured by WB). […]
Levels of PGRN in the culture medium were determined by ELISA (Progranulin (rat) ELISA lit, Adipogen, Coger) according to manufacturer's recommendations. […] Optical density (OD) was assessed by spectrophotometry at 450 nm wavelength with a Glomax apparatus (Promega). […]

Assay [1] concerns dopaminergic (TH positive) neurons. Kind of assay: Survival and neurite network of TH(+) mesencephalic neurons after MPP+ injury. Format: cell-based, rat. The conditions noted are these: MPP+ 4 μM 48 h; 50 nM dose. The method, then: Rat dopaminergic neurons were cultured as described by Visanji et al. in FASEB J. 2008, 22(7): 2488-2497 and Callizot et al., in Plos One 2019: https://doi.org/10.1371/journal.pone.0215277. Briefly, pregnant female rat (Wistar) of 15 days of gestation were killed using a deep anesthesia with CO2 chamber and a cervical dislocation. The midbrains obtained from 15-day-old rat embryos (Janvier, France) were dissected under a microscope. The embryonic midbrains were removed and placed in ice-cold medium of Leibovitz (L15) containing 2% of Penicillin-Streptomycin (PS) and 1% of BSA. The ventral portion of the mesencephalic flexure, a region of the developing brain rich in dopaminergic neurons, were used for the cell preparations. The midbrains were dissociated by trypsinization for 20 min at 37° C. (solution at a final concentration of 0.05% trypsin and 0.02% EDTA). The reaction was stopped by the addition of DMEM containing DNAase I grade II (0.5 mg/mL) and 10% of FCS. […] Viable cells were counted in a Neubauer cytometer using the trypan blue exclusion test. […]
The following read-outs were investigated: • neuron survival: total number of TH neurons (TH staining), • neurite network: total length of neurite network of TH positive neurons (in μm) • α-syn aggregation (area of overlapping between TH and α-syn staining in μm^2) […]

“N-(3-(4-(3-(diisobutylamino)propyl)piperazin-1-yl)propyl)-1H-benzo[d]imidazol-2-amine sesqui-succinate salt [sesqui-succinate salt Form 1]”: the “levels of extracellular PGRN” value in the assay with PGRN was “significantly increased”. Moreover, in assay [1], the “neurite network of TH positive neurons” value is recorded as “significantly improved” and the “neuron survival: total number of TH neurons” value is reported as “neuroprotective”.
